In ChEMBL document CHEMBL1201862, “PubChem BioAssay data set” (2004):
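These data come from cells grown in 96-well plates and exposed to compound for 48 hours at five concentrations. The concentration for 50% growth inhibition is given as GI50.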 Calls of active or inactive are those of the source. Cut-off read from the data, not from the text of the source: active = GI50 up to about 1.1 µM and inactive = higher.

Experiments:
Test in all cases: DTP human tumour cell line panel, 48 h
786-0 = tested on: 786-0
A498 = tested on: A498
A549 = tested on: A549
ACHN = tested on: ACHN
BT-549 = tested on: BT-549
CAKI-1 = tested on: CAKI-1
CCRF-CEM = tested on: CCRF-CEM
COLO 205 = tested on: COLO 205
DU-145 = tested on: DU-145
EKVX = tested on: EKVX
HCT-116 = tested on: HCT-116
HCT-15 = tested on: HCT-15
HL-60 = tested on: HL-60
HOP-62 = tested on: HOP-62
HOP-92 = tested on: HOP-92
HT-29 = tested on: HT-29
Hs-578T = tested on: Hs-578T
IGROV-1 = tested on: IGROV-1
KM12 = tested on: KM12
LOX IMVI = tested on: LOX IMVI
M14 = tested on: M14
MCF7 = tested on: MCF7
MDA-MB-231 = tested on: MDA-MB-231
MDA-MB-435 = tested on: MDA-MB-435
MDA-N = tested on: MDA-N
Malme-3M = tested on: Malme-3M
NCI-H226 = tested on: NCI-H226
NCI-H23 = tested on: NCI-H23
NCI-H460 = tested on: NCI-H460
NCI-H522 = tested on: NCI-H522
NCI/ADR-RES = tested on: NCI/ADR-RES
OVCAR-3 = tested on: OVCAR-3
OVCAR-4 = tested on: OVCAR-4
OVCAR-5 = tested on: OVCAR-5
OVCAR-8 = tested on: OVCAR-8
PC-3 = tested on: PC-3
RPMI-8226 = tested on: RPMI-8226
RXF 393 = tested on: RXF 393
SF-268 = tested on: SF-268
SF-295 = tested on: SF-295
SF-539 = tested on: SF-539
SK-MEL-28 = tested on: SK-MEL-28
SK-MEL-2 = tested on: SK-MEL-2
SK-MEL-5 = tested on: SK-MEL-5
SK-OV-3 = tested on: SK-OV-3
SN12C = tested on: SN12C
SNB-19 = tested on: SNB-19
SNB-75 = tested on: SNB-75
SR = tested on: SR
SW-620 = tested on: SW-620
T47D = tested on: T47D
TK-10 = tested on: TK-10
U-251 = tested on: U-251
UACC-257 = tested on: UACC-257
UACC-62 = tested on: UACC-62
UO-31 = tested on: UO-31
HCC 2998 = tested on: HCC 2998
K562 = tested on: K562

Q: Which results are given for `NCCc1ccc(S(=O)(=O)O)cc1[N+](=O)[O-]`?
A: GI50 (786-0): > 100 µM (inactive); GI50 (A498): > 100 µM (inactive); GI50 (A549): > 100 µM (inactive); GI50 (ACHN): > 100 µM (inactive); GI50 (BT-549): > 100 µM (inactive); GI50 (CAKI-1): > 100 µM (inactive); GI50 (CCRF-CEM): > 100 µM (inactive); GI50 (COLO 205): > 100 µM (inactive); GI50 (DU-145): > 100 µM (inactive); GI50 (EKVX): > 100 µM (inactive); GI50 (HCT-116): > 100 µM (inactive); GI50 (HCT-15): > 100 µM; GI50 (HL-60): > 100 µM (inactive); GI50 (HOP-62): > 100 µM (inactive); GI50 (HOP-92): > 100 µM (inactive); GI50 (HT-29): > 100 µM (inactive); GI50 (Hs-578T): > 100 µM (inactive); GI50 (IGROV-1): > 100 µM (inactive); GI50 (KM12): > 100 µM (inactive); GI50 (LOX IMVI): > 100 µM (inactive); GI50 (M14): > 100 µM (inactive); GI50 (MCF7): > 100 µM (inactive); GI50 (MDA-MB-231): > 100 µM (inactive); GI50 (MDA-MB-435): > 100 µM (inactive); GI50 (MDA-N): > 100 µM (inactive); GI50 (Malme-3M): > 100 µM (inactive); GI50 (NCI-H226): > 100 µM (inactive); GI50 (NCI-H23): > 100 µM (inactive); GI50 (NCI-H460): > 100 µM (inactive); GI50 (NCI-H522): > 100 µM (inactive); GI50 (NCI/ADR-RES): > 100 µM (inactive); GI50 (OVCAR-3): > 100 µM (inactive); GI50 (OVCAR-4): > 100 µM (inactive); GI50 (OVCAR-5): > 100 µM (inactive); GI50 (OVCAR-8): > 100 µM (inactive); GI50 (PC-3): > 100 µM (inactive); GI50 (RPMI-8226): > 100 µM (inactive); GI50 (RXF 393): > 100 µM (inactive); GI50 (SF-268): > 100 µM (inactive); GI50 (SF-295): > 100 µM (inactive); GI50 (SF-539): > 100 µM (inactive); GI50 (SK-MEL-28): > 100 µM (inactive); GI50 (SK-MEL-2): > 100 µM (inactive); GI50 (SK-MEL-5): > 100 µM (inactive); GI50 (SK-OV-3): > 100 µM (inactive); GI50 (SN12C): > 100 µM (inactive); GI50 (SNB-19): > 100 µM (inactive); GI50 (SNB-75): > 100 µM (inactive); GI50 (SR): 4.71 µM (inactive); GI50 (SW-620): > 100 µM (inactive); GI50 (T47D): > 100 µM (inactive); GI50 (TK-10): > 100 µM (inactive); GI50 (U-251): > 100 µM (inactive); GI50 (UACC-257): > 100 µM (inactive); GI50 (UACC-62): > 100 µM (inactive); GI50 (UO-31): > 100 µM (inactive)

Q: How did the GI50 (786-0) turn out when `OCC1CCCC(n2cnc3c(S)ncnc32)O1` (configuration not stated) was run?
A: > 100 µM (inactive)

Q: What about the GI50 (A498) of the same molecule?
A: > 100 µM (inactive)

Q: What about the GI50 (A549) of the same molecule?
A: > 100 µM (inactive)

Q: And the GI50 (ACHN)?
A: > 100 µM (inactive)

Q: And the GI50 (BT-549)?
A: > 100 µM (inactive)

Q: What about the GI50 (CAKI-1) of the same molecule?
A: > 100 µM (inactive)

Q: What about the GI50 (COLO 205) of the same molecule?
A: > 100 µM (inactive)

Q: And the GI50 (DU-145)?
A: > 100 µM (inactive)

Q: And the GI50 (EKVX)?
A: > 100 µM (inactive)

Q: And the GI50 (HCC 2998)?
A: > 100 µM (inactive)

Q: And the GI50 (HCT-116)?
A: > 100 µM (inactive)

Q: And the GI50 (HCT-15)?
A: > 100 µM

Q: What about the GI50 (HL-60) of the same molecule?
A: 0.0252 µM (active)

Q: And the GI50 (HOP-62)?
A: > 100 µM (inactive)

Q: What about the GI50 (HOP-92) of the same molecule?
A: > 100 µM (inactive)

Q: And the GI50 (HT-29)?
A: > 100 µM (inactive)

Q: What about the GI50 (Hs-578T) of the same molecule?
A: > 100 µM (inactive)

Q: And the GI50 (IGROV-1)?
A: > 100 µM (inactive)

Q: And the GI50 (K562)?
A: > 100 µM (inactive)

Q: What about the GI50 (KM12) of the same molecule?
A: > 100 µM (inactive)

Q: What about the GI50 (LOX IMVI) of the same molecule?
A: > 100 µM (inactive)

Q: What about the GI50 (M14) of the same molecule?
A: > 100 µM (inactive)

Q: And the GI50 (MCF7)?
A: > 100 µM (inactive)

Q: And the GI50 (MDA-MB-231)?
A: > 100 µM (inactive)

Q: And the GI50 (MDA-MB-435)?
A: > 100 µM (inactive)

Q: And the GI50 (MDA-N)?
A: > 100 µM (inactive)

Q: What about the GI50 (Malme-3M) of the same molecule?
A: > 100 µM (inactive)

Q: And the GI50 (NCI-H226)?
A: > 100 µM (inactive)

Q: And the GI50 (NCI-H23)?
A: > 100 µM (inactive)

Q: What about the GI50 (NCI-H460) of the same molecule?
A: > 100 µM (inactive)

Q: And the GI50 (NCI-H522)?
A: > 100 µM (inactive)

Q: And the GI50 (NCI/ADR-RES)?
A: > 100 µM (inactive)

Q: What about the GI50 (OVCAR-3) of the same molecule?
A: > 100 µM (inactive)

Q: And the GI50 (OVCAR-4)?
A: > 100 µM (inactive)

Q: What about the GI50 (OVCAR-5) of the same molecule?
A: > 100 µM (inactive)

Q: What about the GI50 (OVCAR-8) of the same molecule?
A: > 100 µM (inactive)

Q: And the GI50 (PC-3)?
A: > 100 µM (inactive)

Q: And the GI50 (RPMI-8226)?
A: > 100 µM (inactive)

Q: And the GI50 (RXF 393)?
A: > 100 µM (inactive)

Q: What about the GI50 (SF-268) of the same molecule?
A: > 100 µM (inactive)

Q: What about the GI50 (SF-295) of the same molecule?
A: > 100 µM (inactive)

Q: What about the GI50 (SK-MEL-28) of the same molecule?
A: > 100 µM (inactive)

Q: And the GI50 (SK-MEL-2)?
A: > 100 µM (inactive)

Q: What about the GI50 (SK-MEL-5) of the same molecule?
A: > 100 µM (inactive)

Q: What about the GI50 (SK-OV-3) of the same molecule?
A: > 100 µM (inactive)

Q: And the GI50 (SN12C)?
A: > 100 µM (inactive)

Q: What about the GI50 (SNB-19) of the same molecule?
A: > 100 µM (inactive)

Q: What about the GI50 (SNB-75) of the same molecule?
A: > 100 µM (inactive)

Q: And the GI50 (SR)?
A: > 100 µM (inactive)

Q: What about the GI50 (SW-620) of the same molecule?
A: > 100 µM (inactive)

Q: What about the GI50 (T47D) of the same molecule?
A: > 100 µM (inactive)

Q: What about the GI50 (TK-10) of the same molecule?
A: > 100 µM (inactive)

Q: And the GI50 (U-251)?
A: > 100 µM (inactive)

Q: And the GI50 (UACC-257)?
A: > 100 µM (inactive)

Q: And the GI50 (UACC-62)?
A: > 100 µM (inactive)

Q: And the GI50 (UO-31)?
A: > 100 µM (inactive)
